Results reported in patent publication US20250026748A1, “N-(5-SUBSTITUTED-[(1,3,4-THIADIAZOLYL) OR (THIAZOLYL)])(SUBSTITUTED)CARBOXAMIDE COMPOUNDS AND USE THEREOF FOR INHIBITING HUMAN POLYMERASE THETA” (Repare Therapeutics Inc., priority 2021, published 2025).
Where two headings read alike, the source gives them in different places.

Legend:
[1] = target: PXR nuclear receptor (Homo sapiens (Human), UniProt O75469); test: PXR method: luciferase reporter gene activation in transfected tumor cells; type: cell-based; conditions: test compound 0.03-10 μM
PXR nuclear receptor, sequence (O75469 whole entry): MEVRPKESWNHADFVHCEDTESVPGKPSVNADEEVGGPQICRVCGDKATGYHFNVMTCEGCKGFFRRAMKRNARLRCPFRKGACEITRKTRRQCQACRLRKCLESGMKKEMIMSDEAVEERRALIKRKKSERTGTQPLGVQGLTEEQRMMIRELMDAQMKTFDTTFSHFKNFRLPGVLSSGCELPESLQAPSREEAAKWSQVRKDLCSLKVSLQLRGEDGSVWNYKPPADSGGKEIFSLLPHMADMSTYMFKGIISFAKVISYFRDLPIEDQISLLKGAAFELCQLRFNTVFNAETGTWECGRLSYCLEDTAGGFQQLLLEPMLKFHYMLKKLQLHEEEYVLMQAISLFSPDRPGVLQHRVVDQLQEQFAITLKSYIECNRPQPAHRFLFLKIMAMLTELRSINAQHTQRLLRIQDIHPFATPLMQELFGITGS
Description: An expression vector harboring a full-length PXR nuclear receptor plus the appropriate enhancers and promoters linked to the luciferase reporter gene were integrated into the tumor cells. Tumor cells transfected with the species-specific nuclear receptor and the corresponding response elements were seeded in a 96-well plate. Twenty-four hours after seeding, the cells were treated with six distinct concentrations (0.03-10 μM) of the test compound. The cells were then returned to the incubator for an additional 24 h. After this incubation period, the number of viable cells/well were determined using Promega's Cell Titer Fluor cytotoxicity assay. At the end of the assay, Promega's ONE-Glo was added to assess the receptor activation by monitoring reporter gene activity, and by comparing the results to vehicle-treated cells. Activation data were normalized to the number of viable cells/well. Results are expressed as a percentage of the response given by Rifampicin, the positive control, at a 10 μM dose.

[2] = target: T1, CYP3A4 (Homo sapiens (Human), UniProt P08684); test: Reversible CYP inhibition in human liver microsomes (midazolam probe); type: in vitro ADME; conditions: human liver microsomes 0.1 mg/mL, 2.5 μM midazolam, 5 min, test compound up to 30 μM
T1 sequence (P08684 whole entry): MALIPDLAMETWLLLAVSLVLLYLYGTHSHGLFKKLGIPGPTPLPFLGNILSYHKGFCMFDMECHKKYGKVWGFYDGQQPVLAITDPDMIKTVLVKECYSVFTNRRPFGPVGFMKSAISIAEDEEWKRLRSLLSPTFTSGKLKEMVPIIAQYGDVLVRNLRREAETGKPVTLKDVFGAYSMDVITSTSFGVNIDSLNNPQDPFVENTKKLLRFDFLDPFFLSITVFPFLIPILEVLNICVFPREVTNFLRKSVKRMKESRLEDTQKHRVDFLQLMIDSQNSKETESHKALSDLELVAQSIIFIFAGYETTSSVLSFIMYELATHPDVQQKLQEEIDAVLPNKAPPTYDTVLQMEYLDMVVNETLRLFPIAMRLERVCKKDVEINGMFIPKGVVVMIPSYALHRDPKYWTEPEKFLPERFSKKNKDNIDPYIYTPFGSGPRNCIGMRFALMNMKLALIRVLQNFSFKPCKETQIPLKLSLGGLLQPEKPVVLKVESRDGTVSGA
Description: A seven-point semi-log dilution of each test compound (up to […]) or positive control inhibitors for CYP2C9 (up to 1000 nM sulphenazole), CYP2D6 (up to 500 nM quinidine) and CYP3A4 (up to 250 nM ketoconazole) were dissolved in DMSO and added to the incubation plate using a Tecan 300 (normalized for 0.3% DMSO content). Final reaction conditions were: human liver microsomes (0.1 mg/mL), potassium phosphate buffer 100 mM pH 7.4, 1 mM magnesium chloride, 5 NM diclofenac, 5 NM dextromethorphan and 2.5 μM midazolam. After a pre-incubation at 37 00. The reaction was started with the addition of NADPH solution at the final concentration of 1 mM and carried out at 37 00 for 5 minutes. The reaction was stopped by the addition of 1 volume of cold acetonitrile with internal standard (labetalol) to the incubation plate. The incubation plate was centrifuged at 3000 rpm for 10 minutes to precipitate proteins, and the supernatant was analyzed by LC-MS/MS. Metabolite area ratio (4-OH-diclofenac, dextrorphan and 1-OH-midazolam) versus ISTD area ratio was used as the quantitative signal. Data were analyzed using the plot log of concentration (×-axis) versus the percentage of inhibition (y axis) and the IC50, Hill Slope and R^2 were determined.

[3] = Liver microsomal stability assay; type: in vitro ADME; conditions: pH 7.4; human liver microsomes 0.5 mg/mL, 1 μM compound, NADPH 1 mM, 37 °C
Description: Liver microsomes were thawed on ice prior to use. The incubation mixtures were prepared in 96-well plates and contained test compound or control (1 μM), liver microsomes (0.5 mg of microsomal protein/mL), MgCl2 (5 mM), phosphate buffer (100 mM, pH 7.4), 0.01% DMSO and 1% acetonitrile. A T=0 aliquot was withdrawn after 10 min pre-incubation at 37° C. on a shaker. Reactions were initiated by the addition of NADPH (final concentration of 1 mM) and the plate was kept on a shaker at 37° C., further samples were withdrawn at 5, 15, 30, and 60 minutes. At each timepoint, the reactions were immediately terminated by adding of ice-cold acetonitrile containing internal standard to the withdrawn sample. The extracted samples were centrifuged for 10 minutes at 3200 rpm to pellet the precipitated microsomal protein, and the supernatant was combined 1:1 with water and analyzed by LC-MS/MS. Using the T=0 peak area ratio as 100%, the percentage of parent compound remaining was calculated. For each compound, the In percentage remaining versus incubation time was plotted and the slope of this linear regression (−k) was converted to an in vitro T1/2 value and CLint using the equations below.

[4] = target: T1, CYP3A4; test: TDI method: time-dependent CYP inhibition, IC50 shift -NADPH/+NADPH; type: in vitro ADME; conditions: IC50 (-NADPH) divided by IC50 (+NADPH), 30 min pre-incubation, human liver microsomes
Description: Test compound or positive control inhibitors (CYP2C9: Tienilic acid; CYP2D6: paroxetine; CYP3A4: mifepristone) were dissolved in DMSO and a semi-log dilution (up to 50.0 μM) was prepared to 2 incubation plates and normalized for a final DMSO content of 0.5%. Human liver microsomes were diluted at 1 mg/mL with 100 mM potassium phosphate buffer pH 7.4 (1 mM MgCl2) and added to both incubation plates. After pre-incubation at 37° C., the reaction was started with the addition of NADPH (+NADPH condition) or with water (-NADPH condition). Plates were incubated for 30 min and 8 μL were transferred to a second incubation plate containing 72 μL of 1 mM NADPH, 20 μM diclofenac (CYP2C9), 20 μM dextromethorphan (CYP2D6) and 10 μM midazolam (CYP3A4) in 100 mM potassium phosphate buffer pH 7.4 (1 mM MgCl2). Plates were incubated for 10 min and the reaction was stopped by the addition of cold acetonitrile containing internal standard (1:1 v/v). Incubation plates were centrifuged at 3000 rpm for 10 minutes to precipitate protein, and the supernatant was used for LC-MS/MS analysis. Metabolite area ratio (4-OH-diclofenac, dextrorphan and 1-OH-midazolam) versus internal standard area ratio was used as the quantitative signal. Data were analyzed using the plot log of concentration (x axis) versus the percentage of inhibition (y axis) and IC50, Hill Slope and R^2 were determined. The IC50 shift was then calculated by dividing the IC50-NADPH condition by the IC50 obtained in the +NADPH condition.

[5] = target: Polθ ATPase enzyme (1-894) (Homo sapiens (Human), UniProt O75417); test: Polθ ATPase enzymatic assay (3 nM enzyme concentration), ADP-Glo; type: biochemical
Polθ ATPase enzyme (1-894), sequence (O75417 1-894): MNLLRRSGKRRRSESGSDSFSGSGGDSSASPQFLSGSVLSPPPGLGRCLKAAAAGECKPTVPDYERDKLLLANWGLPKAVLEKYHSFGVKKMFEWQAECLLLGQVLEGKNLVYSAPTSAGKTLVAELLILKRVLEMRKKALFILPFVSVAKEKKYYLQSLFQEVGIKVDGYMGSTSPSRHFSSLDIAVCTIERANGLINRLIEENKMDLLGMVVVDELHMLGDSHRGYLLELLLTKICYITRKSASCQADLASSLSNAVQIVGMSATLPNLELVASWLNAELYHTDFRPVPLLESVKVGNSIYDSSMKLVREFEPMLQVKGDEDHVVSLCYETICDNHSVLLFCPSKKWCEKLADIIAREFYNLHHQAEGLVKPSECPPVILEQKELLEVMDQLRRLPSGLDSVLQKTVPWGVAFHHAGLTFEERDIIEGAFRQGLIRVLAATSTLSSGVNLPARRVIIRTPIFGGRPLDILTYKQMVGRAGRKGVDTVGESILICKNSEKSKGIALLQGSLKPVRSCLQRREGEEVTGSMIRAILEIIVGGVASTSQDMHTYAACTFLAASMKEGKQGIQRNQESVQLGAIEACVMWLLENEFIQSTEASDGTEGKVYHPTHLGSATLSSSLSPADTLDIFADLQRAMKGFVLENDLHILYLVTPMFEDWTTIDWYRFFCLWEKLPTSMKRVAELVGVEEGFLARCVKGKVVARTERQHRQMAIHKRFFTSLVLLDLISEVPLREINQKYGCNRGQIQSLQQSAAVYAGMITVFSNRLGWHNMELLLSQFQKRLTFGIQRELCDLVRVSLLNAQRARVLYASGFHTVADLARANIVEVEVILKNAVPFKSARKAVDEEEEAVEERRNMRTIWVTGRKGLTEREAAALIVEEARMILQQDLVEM
Description: Polθ ATPase enzyme (1-894) at 3 nM is incubated with a 10-point concentration response of inhibitors for 15 min at rt in the following buffer: 50 mM Tris Cl pH 7.5, 10% glycerol, 5 mM DTT, 10 mM MgCl2, 0.1 mg/ml BSA. Following pre-incubation with inhibitors, DNA (Fork C) at 20 nM and ATP at 100 μM are added to start the reaction. Enzymatic reaction proceeds at rt for 60 min. ATP consumption is measured using the ADP-Glo assay from Promega. Luminescence is read on the Envision and IC50 are determined using the variable slope 4-parameters equation.
DNA (Fork C) is made by annealing 3 different oligos containing the following sequence of nucleotides:
Oligos are annealed by heating at 95° C. for 5 min in the following buffer (10 mM Tris-HCl pH7.5, 50 mM NaCl, 1 mM EDTA) and cooled to rt. […]

[6] = target: PolQ ATPase enzyme (1-894) (Homo sapiens (Human), UniProt O75417); test: Polθ ATPase enzymatic assay (0.5 nM enzyme concentration), ADP-Glo; type: biochemical; conditions: average IC50; 0.5 nM PolQ ATPase enzyme (1-894)
PolQ ATPase enzyme (1-894), sequence (O75417 1-894): as above
Procedure, shortened: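 Enzyme (0.5 nM) pre-incubated 15 min at rt with 10-point inhibitor series in 50 mM Tris pH 7.5, 10% glycerol, 5 mM DTT, 10 mM MgCl2, 0.1 mg/ml BSA; reaction started with 20 nM fork DNA and 100 μM ATP, run 180 min at rt. ADP-Glo luminescence; IC50 from 4-parameter variable-slope fit.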

[7] = read-out: IC50 (nM) [PolQ] 3 nM, average IC50, 3 nM PolQ ATPase enzyme (1-894)

| IC50 [5, 7] | IC50 [6] | other results | SMILES |
| --- | --- | --- | --- |
|  |  | fold induction at 24 h ([1]; compared with vehicle-treated cells, read-out: PXR activation (Max fold induction)): 1.8; PXR activation (% Max activity) ([1]; percentage of the response given by Rifampicin at 10 μM, 24 h): 5.0%; IC50 [2]: > 30000 nM; microsomal CLint at 1 μM [3]: < 7.7 µL/min/mg; Time-dependent CYP3A4 inhibition-shift after 30 min with NADPH [4]: 1x | C=C(C1=CN=CCC1C(=O)Nc1nnc(CCC2CC2)s1)/C(=C\N=C\Cl)OC (stereo not shown) |
| 48 nM |  |  | COc1ccc(F)cc1-c1cnccc1C(=O)Nc1nnc(C#Cc2cnn(CC#N)c2)s1 [Compound 8, N-(5-((1-(cyanomethyl)-1H-pyrazol-4-yl)ethynyl)-1,3,4-thiadiazol-2-yl)-3-(5-fluoro-2-methoxyphenyl)isonicotinamide] |
| 2 nM | 3.5 nM |  | COc1ccc(C#N)cc1-c1cnccc1C(=O)Nc1nnc(C#CC2CC2)s1 [Compound 12, 3-(5-cyano-2-methoxyphenyl)-N-(5-(cyclopropylethynyl)-1,3,4-thiadiazol-2-yl)isonicotinamide] |
| 2 nM | 0.63 nM |  | COc1ccc(C#N)cc1-c1cnccc1C(=O)Nc1nnc(C#CC2CC23CC3)s1 (stereo not shown) [Compound 6, 3-(5-cyano-2-methoxyphenyl)-N-(5-(spiro[2.2]pentan-1-ylethynyl)-1,3,4-thiadiazol-2-yl)isonicotinamide] |
|  | 2.2 nM | IC50 [5]: 3.3 nM | COc1ccc(C#N)cc1-c1cnccc1C(=O)Nc1nnc(C2C[C@H]2c2ccc(C#N)cc2)s1 (mixture of isomers) [Compound 2, N-(5-((1R,2R)-2-(4-cyanophenyl)cyclopropyl)-1,3,4-thiadiazol-2-yl)-3-(5-cyano-2-methoxyphenyl)isonicotinamide] |
| 54 nM |  |  | COc1ccc(F)cc1-c1cnccc1C(=O)Nc1nnc(C#Cc2cnc(C#N)c(OC)c2)s1 [Compound 10] |
| 33 nM |  |  | COc1ccc(C#N)cc1-c1cnccc1C(=O)Nc1nnc(C#CC2(N)CC2)s1 [Compound 9] |
| 139 nM |  |  | COc1ccc(F)cc1-c1cnccc1C(=O)Nc1nnc(C#Cc2cnc3cnccn23)s1 [Compound 14] |
| 12 nM |  |  | COc1ccc(C#N)cc1-c1cnccc1C(=O)Nc1nnc(C#CC2COC2)s1 [Compound 7, 3-(5-cyano-2-methoxyphenyl)-N-(5-(oxetan-3-ylethynyl)-1,3,4-thiadiazol-2-yl)isonicotinamide] |
| 117 nM |  |  | COc1ccc(F)cc1-c1cnccc1C(=O)Nc1nnc(C#Cc2ccc3nccn3n2)s1 [Compound 11] |
| 92 nM |  |  | COc1ccc(F)cc1-c1cnccc1C(=O)Nc1nnc([C@@H]2C[C@H]2c2nc3ccccc3n2C)s1 [Compound 4, 3-(5-fluoro-2-methoxyphenyl)-N-(5-((1R,2R)-2-(1-methyl-1H-benzo[d]imidazol-2-yl)cyclopropyl)-1,3,4-thiadiazol-2-yl)isonicotinamide] |
| 2.9 nM | 1.5 nM |  | COc1ccc(C#N)cc1-c1cnccc1C(=O)Nc1nnc(C#CC2CCC2)s1 [Compound 5] |
| 21 nM |  |  | COc1ccc(C#N)cc1-c1cn(C)c(=O)cc1C(=O)Nc1nnc(C#CC2CC2)s1 [Compound 20] |
| < 1.5 nM | 0.78 nM |  | COc1ccc(C(F)(F)F)cc1-c1cnccc1C(=O)Nc1nnc(C#CC2CC2)s1 [Compound 24] |
| 12 nM |  |  | COc1ccc(F)cc1-n1cncc1C(=O)Nc1nnc(C#CC2CC2)s1 [Compound 22] |
| 27 nM |  |  | COc1ccc(F)cc1-c1cn(C)c(=O)cc1C(=O)Nc1nnc(C#Cc2ccn(C)n2)s1 [Compound 19] |
| 12 nM |  |  | COc1ccc(F)cc1-c1cn(C)c(=O)cc1C(=O)Nc1nnc(C#CC2CC2)s1 [Compound 21] |
| 204 nM |  |  | COc1ccc(F)cc1-c1cn(C)c(=O)cc1C(=O)Nc1nnc(C#Cc2cnn(C3CCCNC3)c2)s1 (stereo not shown) [Compound 18] |
| 134 nM |  |  | COc1ccc(C#N)cc1-n1cncc1C(=O)Nc1nnc(C#CC2CC2)s1 [Compound 23] |
| 23 nM |  |  | COc1ccc(F)cc1-c1cnccc1C(=O)Nc1nnc([C@@H]2C[C@H]2c2ccn(C)n2)s1 [Compound 3, 3-(5-fluoro-2-methoxyphenyl)-N-(5-((1R,2R)-2-(1-methyl-1H-pyrazol-3-yl)cyclopropyl)-1,3,4-thiadiazol-2-yl)isonicotinamide] |
| 5.4 nM | 3.2 nM |  | COc1ccc(F)cc1-c1cn(C)c(=O)cc1C(=O)Nc1nnc(C#Cc2cc(C)[nH]n2)s1 [Compound 17] |
| 1.5 nM | 1.3 nM |  | COc1cnc(Cl)cc1-c1cnccc1C(=O)Nc1nnc(C#CC2CC2)s1 [Compound 25] |
| 5.8 nM | 1.1 nM |  | COc1ccc(F)cc1-c1cnccc1C(=O)Nc1nnc([C@@H]2C[C@H]2c2ccc(C#N)cc2)s1 [Compound 1, N-(5-((1R,2R)-2-(4-cyanophenyl)cyclopropyl)-1,3,4-thiadiazol-2-yl)-3-(5-fluoro-2-methoxyphenyl)isonicotinamide] |
| 2.6 nM | 0.53 nM |  | COc1cnc(Cl)cc1-c1cnccc1C(=O)Nc1nnc([C@@H]2C[C@H]2c2ccc(C#N)cc2)s1 [Compound 26, 2′-chloro-N-(5-((1R,2R)-2-(4-cyanophenyl)cyclopropyl)-1,3,4-thiadiazol-2-yl)-5′-methoxy-[3,4′-bipyridine]-4-carboxamide] |
| 15 nM |  |  | COc1ccc(C#N)cc1-c1cn(C)c(=O)cc1C(=O)Nc1nnc(C2C[C@H]2c2ccc(C#N)cc2)s1 (stereo partly shown) [Compound 15] |
| 6.9 nM | 4.2 nM |  | COc1c(F)cccc1-c1cnccc1C(=O)Nc1nnc(C#CC2CC2)s1 [Compound 13] |
